The values that follow are results of earlier work, collected in patent US9198974B2, “Decorated macromolecular scaffolds” (Mintaka Foundation for Medical Research, priority 2011, dated 2015).

For the first data set the following is noted: meta-substituted aniline; listed as gives the substituent.
For the molecule `Nc1cccc(Br)c1` [m-Br—], the “pKa, m-” value is listed as 3.51.

For the molecule `CCOC(=O)c1cccc(N)c1` [m-C2H5O2C—], the “pKa, m-” value is 2.38.

On to `CCOc1cccc(N)c1` [m-C2H5O—], for which the “pKa, m-” value is recorded as 4.17.

As to `Nc1cccc(-c2ccccc2)c1` [m-C6H5—], the “pKa, m-” value is reported as 4.18.

On to `COC(=O)c1cccc(N)c1` [m-CH3O2C—], for which the “pKa, m-” value is 3.56.

In the case of `COc1cccc(N)c1` [m-CH3O—], the “pKa, m-” value is recorded as 4.20.

For `CSc1cccc(N)c1` [m-CH3S—], the “pKa, m-” value is given as 4.40.

Consider `Cc1cccc(N)c1` [m-CH3—], for which the “pKa, m-” value is recorded as 4.67.

For the molecule `Nc1cccc(Cl)c1` [m-Cl—], the “pKa, m-” value is listed as 3.32.

Consider `Nc1cccc(C(F)(F)F)c1` [m-F3C—], for which the “pKa, m-” value is reported as 2.57.

As for `Nc1cccc(F)c1` [m-F—], the “pKa, m-” value is on record as 3.38.

`Nc1cccc(N)c1` [m-H2N—]: the “pKa, m-” value was 4.88.

On to `Nc1cccc(C(=O)O)c1` [m-HO2C—], for which the “pKa, m-” value is recorded as 3.05.

Regarding `Nc1cccc(O)c1` [m-HO—], the “pKa, m-” value is 4.17.

As for `Nc1cccc([N+](=O)[O-])c1` [m-O2N—], the “pKa, m-” value was 2.45.

Take `Nc1cccc(S(=O)(=O)O)c1` [m-O3S—]: the “pKa, m-” value is listed as 3.32.

The same data set, now with this note: ortho-substituted aniline; listed as gives the substituent.
Regarding `CC(C)(C)c1ccccc1N` [o-(CH3)3C—], the “pKa, o-” value is 3.78.

For the molecule `Nc1ccccc1Br` [o-Br—], the “pKa, o-” value is 2.6.

In the case of `CCOC(=O)c1ccccc1N` [o-C2H5O2C—], the “pKa, o-” value was 2.10.

Consider `CCOc1ccccc1N` [o-C2H5O—], for which the “pKa, o-” value is 4.47.

As to `Nc1ccccc1-c1ccccc1` [o-C6H5—], the “pKa, o-” value is on record as 3.78.

For `COC(=O)c1ccccc1N` [o-CH3O2C—], the “pKa, o-” value is listed as 2.16.

With `COc1ccccc1N` [o-CH3O—], the “pKa, o-” value is listed as 4.49.

Take `CSc1ccccc1N` [o-CH3S—]: the “pKa, o-” value was 4.05.

Consider `Cc1ccccc1N` [o-CH3—], for which the “pKa, o-” value was 4.38.

Regarding `Nc1ccccc1Cl` [o-Cl—], the “pKa, o-” value is 2.62.

With `Nc1ccccc1C(F)(F)F` [o-F3C—], the “pKa, o-” value is 3.49.

With `Nc1ccccc1F` [o-F—], the “pKa, o-” value is given as 2.96.

As for `Nc1ccccc1N` [o-H2N—], the “pKa, o-” value is given as 4.47.

Take `Nc1ccccc1C(=O)O` [o-HO2C—]: the “pKa, o-” value is on record as 2.04.

Regarding `Nc1ccccc1O` [o-HO—], the “pKa, o-” value was 4.72.

Consider `Nc1ccccc1[N+](=O)[O-]` [o-O2N—], for which the “pKa, o-” value is on record as −0.28.

`Nc1ccccc1S(=O)(=O)O` [o-O3S—]: the “pKa, o-” value is 3.80.

The same data set, now with this note: preferred aniline catalysts.
One may read the pKa as the pH at which an ionisable group is half protonated. In the case of `CCOc1ccc(N)cc1` [p-C2H5O—, 4-ethoxy aniline], the pKa was 5.2.
